Consider 7 compounds from ChEMBL document CHEMBL1136689, “Inhibition of telomerase by BIBR 1532 and related analogues” (Bioorg Med Chem Lett, 2003).

Each structure is given as a SMILES string.

Assay [1] addresses T1, Telomerase reverse transcriptase (Homo sapiens, UniProt O14746). Description: Inhibitory activity against telomerase.
Assay [2] deals with T1, Telomerase reverse transcriptase. Description: Inhibitory activity against telomerase; ND: Not detected concentrations as high as 50 uM.
Assay [3] has the same target. Description: Inhibitory activity against telomerase; ND: not detected concentrations as high as 50 uM.

T1 sequence (O14746 whole entry): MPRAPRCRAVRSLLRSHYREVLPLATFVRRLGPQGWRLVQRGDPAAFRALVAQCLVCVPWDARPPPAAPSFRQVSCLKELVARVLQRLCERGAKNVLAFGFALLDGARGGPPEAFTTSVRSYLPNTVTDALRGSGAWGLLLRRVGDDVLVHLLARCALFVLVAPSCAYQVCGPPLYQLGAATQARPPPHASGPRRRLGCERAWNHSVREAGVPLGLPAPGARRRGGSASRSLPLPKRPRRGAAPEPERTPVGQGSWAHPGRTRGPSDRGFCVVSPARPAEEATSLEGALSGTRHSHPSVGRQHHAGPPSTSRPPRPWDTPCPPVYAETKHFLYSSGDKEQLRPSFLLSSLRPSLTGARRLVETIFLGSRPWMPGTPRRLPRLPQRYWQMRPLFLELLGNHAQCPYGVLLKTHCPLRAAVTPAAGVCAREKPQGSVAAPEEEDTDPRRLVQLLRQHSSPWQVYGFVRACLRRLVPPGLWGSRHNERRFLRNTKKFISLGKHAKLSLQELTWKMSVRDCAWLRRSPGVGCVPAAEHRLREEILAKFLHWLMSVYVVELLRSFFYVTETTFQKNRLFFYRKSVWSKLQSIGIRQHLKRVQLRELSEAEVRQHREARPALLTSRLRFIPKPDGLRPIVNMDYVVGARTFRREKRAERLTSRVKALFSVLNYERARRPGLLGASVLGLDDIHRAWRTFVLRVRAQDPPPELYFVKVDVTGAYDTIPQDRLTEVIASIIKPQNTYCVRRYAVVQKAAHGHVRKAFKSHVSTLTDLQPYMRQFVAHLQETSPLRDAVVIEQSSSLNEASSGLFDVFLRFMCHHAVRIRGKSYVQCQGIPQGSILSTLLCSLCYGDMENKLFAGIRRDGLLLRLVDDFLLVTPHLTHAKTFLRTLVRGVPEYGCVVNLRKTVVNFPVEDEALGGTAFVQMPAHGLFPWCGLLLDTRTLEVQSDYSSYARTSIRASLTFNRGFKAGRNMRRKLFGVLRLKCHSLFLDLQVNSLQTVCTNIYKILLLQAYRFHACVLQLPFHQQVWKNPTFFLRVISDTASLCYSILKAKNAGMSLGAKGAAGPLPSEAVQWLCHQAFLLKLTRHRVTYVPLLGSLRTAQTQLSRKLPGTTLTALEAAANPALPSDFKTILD

As for `C/C(=C/C(=O)Nc1ccccc1C(=O)O)c1ccc2ccccc2c1`, in assay [1], the 50% inhibitory concentration (IC50) stood at 5 µM. For `COc1cc(CCC(=O)Nc2ccccc2C(=O)O)ccc1O`, in assay [2], the IC50 entry is recorded as “Inhibition not detected”. For `COc1cc(/C=C(\Cl)C(=O)Nc2ccccc2C(=O)O)ccc1OCc1ccccc1`, the IC50 result in assay [2] is listed as “Inhibition not detected”. Take `CC(CC(=O)Nc1ccccc1C(=O)O)c1ccc2ccccc2c1` (configuration not stated): in assay [2], the IC50 result was “Inhibition not detected”. In the case of `CC(/C=C(\Cl)C(=O)Nc1ccccc1C(=O)O)c1ccccc1` (configuration not stated), in assay [3], the half-inhibitory concentration (IC50) result is reported as “Inhibition not detected”.

As for `C/C(=C\C(=O)Nc1ccccc1C(=O)O)c1ccc2ccccc2c1`, 5 µM corresponded to half-maximal inhibition in assay [1] (IC50). Regarding `C/C(=C(/Cl)C(=O)Nc1ccccc1C(=O)O)c1ccc2ccccc2c1`, in assay [2], the IC50 result is “Inhibition not detected”.

For orientation: IC50 means the point on the concentration scale where inhibition reaches its midpoint. A low value points to inhibition by little substance.
